Test results as given in PubChem BioAssay (NCI).
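Where inhibition never reached the appropriate level, the endpoint shown equals the highest concentration tested. Otherwise, values were interpolated linearly from a five-concentration, 48-hour dose response in 96-well plates. The concentration for 50% growth inhibition is given as GI50. TGI: total growth inhibition.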 *1 amine or outer side, *2 acyl side, *3 side chain or, on linkers, in order; H or OH if unused. Where a SMILES comes first, the peptide text is derived from it. Bridges are numbered along the chain shown (N, C = ends). Roman numbers before positions name the chains, in order. [ ]: non-standard residue; d: D form. Actinocin(9to1) = Cc1c2oc3c(C)ccc(C(=O)[*:1])c3nc-2c(C(=O)[*:2])c(N)c1=O; NMeV = CN[CH](C(=O)O)C(C)C; Sar = CNCC(=O)O

How the values were obtained:
Assay in all cases: growth of human tumour cells (NCI), 48 h
ACHN renal = test system: ACHN renal
NCI-H522 lung = test system: NCI-H522 lung
RXF 393 renal = test system: RXF 393 renal
SR leukemia = test system: SR leukemia
SW-620 colon = test system: SW-620 colon
UACC-257 melanoma = test system: UACC-257 melanoma
UACC-62 melanoma = test system: UACC-62 melanoma
UO-31 renal = test system: UO-31 renal
RPMI-8226 leukemia = test system: RPMI-8226 leukemia

Row | Compound | TGI (ACHN renal) | TGI (NCI-H522 lung) | TGI (RXF 393 renal) | TGI (SR leukemia) | TGI (SW-620 colon) | TGI (UACC-257 melanoma) | TGI (UACC-62 melanoma) | TGI (UO-31 renal) | TGI (RPMI-8226 leukemia) | GI50 (NCI-H522 lung) | GI50 (RPMI-8226 leukemia) | GI50 (RXF 393 renal) | GI50 (SW-620 colon) | GI50 (UACC-257 melanoma) | GI50 (UACC-62 melanoma)
1 | CC(=O)OCC1(CNc2nc(N)ncc2C#N)CC(CCc2ccccc2)C1 (stereo not given) | > 100 µM | > 100 µM | > 100 µM | > 100 µM | > 100 µM | > 100 µM | > 100 µM | > 100 µM | – | – | – | – | – | – | –
2 | Cc1ccc(S(=O)(=O)CC2CCCn3c2c(C#N)c2ccccc23)cc1 (stereo not given) | > 100 µM | > 100 µM | > 100 µM | – | > 100 µM | > 100 µM | > 100 µM | > 100 µM | > 100 µM | – | – | – | – | – | –
3 | C=C1C(=O)O[C@H]2[C@H]1CC/C(COC(=O)/C=C/C(=O)OC/C1=C/CC[C@@]3(C)O[C@H]3[C@H]3OC(=O)C(=C)[C@@H]3CC1)=C\CC[C@@]1(C)O[C@@H]21 | – | 0.374 µM | 0.713 µM | – | 1.11 µM | 3.14 µM | 2.68 µM | – | 4 µM | 171 nM | 868 nM | 297 nM | 338 nM | 1640 nM | 1210 nM
4 | CCC(C)C(NC(=O)C1CCCN1)C(=O)NC(C(=O)NCC(=O)NC(CC(N)=O)C(=O)NC(CC(C)C)C(=O)NC(CC(C)C)C(=O)NC(CCCCN)C(N)=O)C(C)C (stereo not given) (H-PIVGNLLK-NH2; configuration not given here) | > 75 µM | > 75 µM | – | > 75 µM | > 75 µM | > 75 µM | > 75 µM | > 75 µM | > 75 µM | – | – | – | – | – | –
5 | Oc1ccc(O)c(Sc2nnc(CCCCCCCCc3nnc(Sc4cc(O)ccc4O)o3)o2)c1 | 85.9 µM | 55 µM | – | – | > 100 µM | > 100 µM | > 100 µM | 32 µM | > 100 µM | – | – | – | – | – | –
6 | COc1ccc(/C=N/N=C(\N)NO)c(OC)c1OC | 67.2 µM | > 100 µM | > 100 µM | 74.5 µM | > 100 µM | – | > 100 µM | 91.9 µM | > 100 µM | – | – | – | – | – | –
7 | Cc1ccc(C(=O)NN=C(/N=N/c2cccc(C)c2)c2ccc(N(C)C)cc2)cc1 | > 100 µM | > 100 µM | – | > 100 µM | > 100 µM | > 100 µM | > 100 µM | > 100 µM | > 100 µM | – | – | – | – | – | –
8 | CC(C)CCCC(C)[C@H]1CC[C@H]2NCCCC[C@]12C (stereo not given in full) | 4.78 µM | – | 4.62 µM | 6.23 µM | 9.84 µM | 9.37 µM | 3.91 µM | 20.7 µM | 4.01 µM | – | – | – | – | – | –
9 | O=C(O)Cn1ncn(NC(=O)Cc2ccccc2)c1=S | > 10 µM | > 10 µM | – | > 10 µM | > 10 µM | > 10 µM | > 10 µM | > 10 µM | > 10 µM | – | – | – | – | – | –
10 | COc1ccc(C[C@H]2COC(=O)[C@@H]2Cc2ccccc2)cc1OC | > 100 µM | – | – | > 100 µM | > 100 µM | > 100 µM | – | – | > 100 µM | – | – | – | – | – | –
11 | CN1C(=O)C(CCO)(C(C)(C)C)c2ccccc21 (stereo not given) | > 100 µM | – | > 100 µM | > 100 µM | > 100 µM | > 100 µM | > 100 µM | > 100 µM | > 100 µM | – | – | – | – | – | –
12 | C=C1CC(Cn2cc(Br)c(=O)[nH]c2=O)(c2ccc(Br)cc2)OC1=O (stereo not given) | 9.4 µM | 3.19 µM | – | > 22.6 µM | 3.79 µM | 4.11 µM | 9.46 µM | 27.1 µM | 1.61 µM | – | – | – | – | – | –
13 | O=C1/C(=C/c2cccs2)N=C(c2ccccc2)N1c1nc2ccccc2s1 | > 100 µM | 17.3 µM | 90.7 µM | > 100 µM | > 100 µM | > 100 µM | – | > 100 µM | 52.2 µM | – | – | – | – | – | –
14 | CCCCCCCCCCC[N+]1(Cc2ccccc2)CC2CCN(Cc3ccccc3)CC2C1 (stereo not given) | 2.43 µM | 1.29 µM | 1.95 µM | 1.07 µM | 1.58 µM | 1.14 µM | – | 2.56 µM | 0.378 µM | – | – | – | – | – | –
15 | CCOc1ccccc1N=NC1C(=O)N(C(=O)CC(=O)Nc2ccccc2OC)N=C1C (stereo not given) | > 100 µM | > 100 µM | 81.5 µM | – | > 100 µM | – | > 100 µM | 68.2 µM | > 100 µM | – | – | – | – | – | –
16 | Cn1c(=O)[nH]n(-c2ccc3ccccc3c2)c1=O | > 100 µM | > 100 µM | > 100 µM | – | > 100 µM | > 100 µM | > 100 µM | > 100 µM | > 100 µM | – | – | – | – | – | –
17 | CCCCNC(=S)Nc1nc(C(=O)NNC(=S)NCc2ccccc2)cs1 | 78.5 µM | > 100 µM | – | 27.5 µM | > 100 µM | 83.9 µM | > 100 µM | > 100 µM | > 100 µM | – | – | – | – | – | –
18 | CCn1c(O)c(C(=O)NC(C)c2ccc([N+](=O)[O-])cc2)c(=O)n(CC)c1=S (stereo not given) | 11.2 µM | – | 12 µM | – | 10.5 µM | 16.6 µM | 5.8 µM | 5.58 µM | 15 µM | – | – | – | – | – | –
19 | c1ccc2c(c1)ccc1nc(-c3ccc4c(c3)OCO4)c3c(c12)CCC3 | > 100 µM | – | – | – | > 100 µM | > 100 µM | > 100 µM | > 100 µM | > 100 µM | – | – | – | – | – | –
20 | Cc1c2oc3c(C)ccc(C(=O)NC4C(=O)NC(Cc5ccc(O)cc5)C(=O)N5CCCC5C(=O)N(C)CC(=O)N(C)C(C(C)C)C(=O)OC4C)c3nc-2c(C(=O)NC2C(=O)NC(Cc3ccc(O)cc3)C(=O)N3CCCC3C(=O)N(C)CC(=O)N(C)C(C(C)C)C(=O)OC2C)c(N)c1=O (stereo not given) (I: TYP[Sar][NMeV] / II: TYP[Sar][NMeV]; ester I:1-I:C, II:1-II:C; linker I:N-II:N via Actinocin(9to1); configuration not given here) | > 100 µM | 45.8 µM | > 57.3 µM | – | > 100 µM | > 100 µM | > 67 µM | > 61.4 µM | > 100 µM | – | – | – | – | – | –
21 | O=C1/C(=C/C=C/c2ccccc2)CCC1CNc1ccc(Br)cc1 (stereo not given) | > 100 µM | 57 µM | > 100 µM | > 100 µM | > 100 µM | > 100 µM | > 100 µM | > 100 µM | – | – | – | – | – | – | –
22 | CC(C)(C)C(=O)O[C@H]1C=C[C@@H](O)[C@@H]2[C@H]1[C@@H]1C=C[C@H]2C1 | > 100 µM | 79.8 µM | – | > 100 µM | > 100 µM | 27.1 µM | > 100 µM | > 100 µM | 83 µM | – | – | – | – | – | –
23 | CC(=O)NC1C(OCc2ccccc2)OC(CO)C(O)C1OCC(=O)N[C@@H](C)C(=O)N[C@H](CCC(=O)NCCCCNc1c2ccccc2nc2cccc([N+](=O)[O-])c12)C(N)=O (stereo not given in full) | 11.3 µM | 0.594 µM | – | > 100 µM | 97 µM | 5.36 µM | 3.13 µM | 6.62 µM | 8.88 µM | – | – | – | – | – | –
